Assays:
Format in all cases: cell-based
platelets [1] = assay: Platelet preservation in platelet rich plasma with 1% citrate (lysine citrate); conditions: PRP 1% citrate, room temperature
Procedure: (§1) In the experiment anticoagulated blood (0.4% citrate by weight) was centrifuged to produce platelet Rich Plasma (PRP). To test samples of PRP citric acid stock solution containing sufficient lysine to bring the solution pH to 7.0 was added to increase the citrate concentration to 1% by weight. Following this addition the pH of the mixture was 6.7. It will be apparent to one of skill in the art that the precise ratio of basic amino acid to citrate can be altered to adjust the pH of the either the stock solution or the final blood mixture. One sample of original PRP was used as the Normal Control, and one sample of the lysine citrate PRP was used as the Citrate Control. One sample of original PRP was inoculated with cultured Staphylococcus epidermidis to a final concentration of about 10 cfu/ml—this formed the Spiked Normal. […] The samples were incubated at room temperature for five days. Each day the number of platelets in each sample was counted; each sample was also tested for LDH (lactate dehydrogenase) and for the ability to induce a clot. Following the tests an aliquot of each sample was subcultured on nutrient agar and incubated under growth conditions.

[2] = system: Staphylococcus epidermidis; assay: Colony counts of PRP samples subcultured on nutrient agar; conditions: for Colony Counts: PRP 1% citrate spiked with about 10 cfu/ml, room temperature
Procedure: as §1

platelets [3] = assay: Platelets in 2% lysine citrate and CPD, 15 days storage; conditions: PRP, CPD + 2% lysine citrate, room temperature
From the text: The second experiment was similar to the first platelet experiment reported above with the primary difference that the primary anticoagulant was CPD (citrate-phosphate-dextrose). This anticoagulant contains approximately 0.4% citrate by weight but also contains dextrose as an energy source for the platelets (and also, unfortunately, for any bacteria that may be present). […] It was believed that the CPD might further stabilize the platelets by providing an energy source.

[4] = Day 1, spiked with Staphylococcus epidermidis about 10 cfu/ml
[5] = Day 2, spiked with Staphylococcus epidermidis about 10 cfu/ml
[6] = Day 3, spiked with Staphylococcus epidermidis about 10 cfu/ml
[7] = Day 4, spiked with Staphylococcus epidermidis about 10 cfu/ml
[8] = Day 5, spiked with Staphylococcus epidermidis about 10 cfu/ml

Structure (SMILES): NCCCC[C@H](N)C(=O)O.O=C(O)CC(O)(CC(=O)O)C(=O)O [Lysine Citrate, lysine citrate]
- Clot time (platelets [1]; [4]): 29 s
- Count (platelets) (platelets [1]; [4]): 2.99 × 10^5 per μl
- LDH (platelets [1]; [4]): 131 IU/L
- Clot time (platelets [1]; Day 1, unspiked): 35 s
- Count (platelets) (platelets [1]; Day 1, unspiked): 3.2 × 10^5 per μl
- LDH (platelets [1]; Day 1, unspiked): 133 IU/L
- Clot time (platelets [1]; [5]): 32 s
- Count (platelets) (platelets [1]; [5]): 3.0 × 10^5 per μl
- LDH (platelets [1]; [5]): 130 IU/L
- Clot time (platelets [1]; Day 2, unspiked): 30 s
- Count (platelets) (platelets [1]; Day 2, unspiked): 3.1 × 10^5 per μl
- LDH (platelets [1]; Day 2, unspiked): 133 IU/L
- Clot time (platelets [1]; [6]): 30 s
- Count (platelets) (platelets [1]; [6]): 3.0 × 10^5 per μl
- LDH (platelets [1]; [6]): 133 IU/L
- Clot time (platelets [1]; Day 3, unspiked): 32 s
- Count (platelets) (platelets [1]; Day 3, unspiked): 3.3 × 10^5 per μl
- LDH (platelets [1]; Day 3, unspiked): 134 IU/L
- Clot time (platelets [1]; [7]): 30 s
- Count (platelets) (platelets [1]; [7]): 3.2 × 10^5 per μl
- LDH (platelets [1]; [7]): 131 IU/L
- Clot time (platelets [1]; Day 4, unspiked): 35 s
- Count (platelets) (platelets [1]; Day 4, unspiked): 3.5 × 10^5 per μl
- LDH (platelets [1]; Day 4, unspiked): 133 IU/L
- Clotting time (platelets [1]; [8]): 32 s
- Count (platelets) (platelets [1]; [8]): 3.0 × 10^5 per μl
- LDH (platelets [1]; [8]): 131 IU/L
- Clotting time (platelets [1]; Day 5, unspiked): 33 s
- Count (platelets) (platelets [1]; Day 5, unspiked): 3.1 × 10^5 per μl
- LDH (platelets [1]; Day 5, unspiked): 135 IU/L
- Colony Counts ([2]; Day 1): 10
- Colony Counts ([2]; Day 2): 7
- Colony Counts ([2]; Day 3): 5
- Colony Counts ([2]; Day 4): 9
- Colony Counts ([2]; Day 5): 7
- bacteria following plating onto nutrient agar ([2]; unspiked PRP 1% citrate): no bacteria
- Clotting time (platelets [3]; Day 1): 29 s
- Count (platelets) (platelets [3]; Day 1): 2.41 × 10^5 per μl
- LDH (platelets [3]; Day 1): 98 IU/L
- Clotting time (platelets [3]; Day 2): 30 s
- Count (platelets) (platelets [3]; Day 2): 2.41 × 10^5 per μl
- LDH (platelets [3]; Day 2): 96 IU/L
- Clotting time (platelets [3]; Day 3): 30 s
- Count (platelets) (platelets [3]; Day 3): 2.40 × 10^5 per μl
- LDH (platelets [3]; Day 3): 97 IU/L
- Clotting time (platelets [3]; Day 4): 31 s
- Count (platelets) (platelets [3]; Day 4): 2.40 × 10^5 per μl
- LDH (platelets [3]; Day 4): 98 IU/L
- Clotting time (platelets [3]; Day 5): 32 s
- Count (platelets) (platelets [3]; Day 5): 2.38 × 10^5 per μl
- LDH (platelets [3]; Day 5): 99 IU/L
- Clotting time (platelets [3]; Day 6): 30 s
- Count (platelets) (platelets [3]; Day 6): 2.41 × 10^5 per μl
- LDH (platelets [3]; Day 6): 101 IU/L
- Clotting time (platelets [3]; Day 7): 28 s
- Count (platelets) (platelets [3]; Day 7): 2.42 × 10^5 per μl
- LDH (platelets [3]; Day 7): 100 IU/L
- Clotting time (platelets [3]; Day 8): 28 s
- Count (platelets) (platelets [3]; Day 8): 2.40 × 10^5 per μl
- LDH (platelets [3]; Day 8): 102 IU/L
- Clotting time (platelets [3]; Day 9): 31 s
- Count (platelets) (platelets [3]; Day 9): 2.38 × 10^5 per μl
- LDH (platelets [3]; Day 9): 100 IU/L
- Clotting time (platelets [3]; Day 10): 30 s
- Count (platelets) (platelets [3]; Day 10): 2.38 × 10^5 per μl
- LDH (platelets [3]; Day 10): 98 IU/L
- Clotting time (platelets [3]; Day 11): 29 s
- Count (platelets) (platelets [3]; Day 11): 2.35 × 10^5 per μl
- LDH (platelets [3]; Day 11): 103 IU/L
- Clotting time (platelets [3]; Day 12): 30 s
- Count (platelets) (platelets [3]; Day 12): 2.34 × 10^5 per μl
- LDH (platelets [3]; Day 12): 101 IU/L
- Clotting time (platelets [3]; Day 13): 30 s
- Count (platelets) (platelets [3]; Day 13): 2.34 × 10^5 per μl
- LDH (platelets [3]; Day 13): 103 IU/L
- Clotting time (platelets [3]; Day 14): 31 s
- Count (platelets) (platelets [3]; Day 14): 2.35 × 10^5 per μl
- LDH (platelets [3]; Day 14): 105 IU/L
- Clotting time (platelets [3]; Day 15): 26 s
- Count (platelets) (platelets [3]; Day 15): 2.28 × 10^5 per μl
- LDH (platelets [3]; Day 15): 122 IU/L

Source: patent US20090123907A1 (priority 2004, published 2009)
